Source: US7220784B2, “Substituted stilbenes and their reactions” (priority 2000, dated 2007)
Like-named read-outs stand apart in the source and are kept apart here.

Columns and labels:
[1] = tested on: K562 human myelogeneous leukaemia cell line; test: Cytotoxicity/growth inhibition assay (MTT), K562; type: cell-based; conditions: MTT, read-out: K562 IC50
Description: (§1) In addition to the cell lines described in this paper, other established human cell lines (K562, HUVEC, H460, BE, H529, and HT29) were used in the cytotoxicity/growth inhibition assay. • (1) Inhibition of tubulin assembly. The figure quoted is the concentration required to reduce assembly of tubulin by 50%. Tubulin assembly is monitored by light scatter/absorption at 350 nm.
(§2) (2) Competition for the colchicine binding site on tubulin. The figure quoted represents the % of ^3H-colchicine bound following co-incubation of test compound and ^3H-cochicine with isolated tubulin. Where ester pro-drugs were used the experiments were carried out in the presence and absence of porcine liver esterase. • (3) Cytotoxicity/growth inhibition assay. This was carried out by the MTT assay. • (4) Permeability (shape-change) assay in endothelial cells. […] This involved the diffusion of a fluorescently labelled dextran through a barrier of endothelial cells (HUVEC) grown to confluence on a porous membrane. The effect of agents to alter the shape of these cells results in an increase in the permeability of the cells to the dye. The figure represents the increase in permeability over control cultures when drug is added (30 minutes, 1 mM.). • (5) Experiments to study the anti-vascular effects of these agents were carried out as described previously by our group. […] The anti-vascular effects of the agents were monitored by either positron emission tomography (PET) or by histologogical examination following treatment of mice bearing T50:80 murine breast tumours, or H460 human lung tumours. • (6) Anti-tumour efficacy of agents was determined in xenografts of H460 human lung cancer. Animals (n=5) were trated either with 5 daily injections and tumour size measured with time following treatment. • (7) The pharmacokinetic profile of agents was determined in mice following injection with drug. Blood was taken at various times following treatment and analysed by HPLC with UV detection. […] (AND(P)H:quinone oxidoreductace, EC 1.6.99.2). DT-diaphorase is an enzyme over-expressed in a number of human tumours. […] This two-electron reducing enzyme can be used to selectively activate prodrugs within cancers which over-express the enzyme.

[2] = tested on: P388 murine leukaemia cell line; test: Cytotoxicity/growth inhibition assay (MTT), P388; type: cell-based
Description: as §2

A2780 = test: Cytotoxicity/growth inhibition assay (MTT), A2780; type: cell-based; conditions: read-out: A2780 IC50
Description: as §1, with “The following assays (1–5) were carried out as described in our paper (Woods, et al, British Journal of Cancer, 71, 705–711 (1995)). In addition” for “In addition”
(2) Competition for the colchicine binding site on tubulin. The figure quoted represents the % of ^3H-colchicine bound following co-incubation of test compound and ^3H-cochicine with isolated tubulin. Where ester pro-drugs were used the experiments were carried out in the presence and absence of porcine liver esterase. • (3) Cytotoxicity/growth inhibition assay. This was carried out by the MTT assay. • (4) Permeability (shape-change) assay in endothelial cells. This was carried out using a method based on that of Watts et al. (Anticancer Res., 17, 71–75, (1997)). This involved the diffusion of a fluorescently labelled dextran through a barrier of endothelial cells (HUVEC) grown to confluence on a porous membrane. The effect of agents to alter the shape of these cells results in an increase in the permeability of the cells to the dye. The figure represents the increase in permeability over control cultures when drug is added (30 minutes, 1 mM.). • (5) Experiments to study the anti-vascular effects of these agents were carried out as described previously by our group. (Zhao et al, European Journal of Nuclear Medicine, 26, 231–238 (1999)). The anti-vascular effects of the agents were monitored by either positron emission tomography (PET) or by histologogical examination following treatment of mice bearing T50:80 murine breast tumours, or H460 human lung tumours. • (6) Anti-tumour efficacy of agents was determined in xenografts of H460 human lung cancer. Animals (n=5) were trated either with 5 daily injections and tumour size measured with time following treatment. • (7) The pharmacokinetic profile of agents was determined in mice following injection with drug. Blood was taken at various times following treatment and analysed by HPLC with UV detection. The HPLC conditions were isocratic using a 5 micron C18 BDS column (150×4.6) ad eluting with 75% MeOH in water with a detection wavelength of 290 nm. […] (AND(P)H:quinone oxidoreductace, EC 1.6.99.2). DT-diaphorase is an enzyme over-expressed in a number of human tumours. […] This two-electron reducing enzyme can be used to selectively activate prodrugs within cancers which over-express the enzyme.

tubulin [3] = test: CD IC50 (Tables 12-26, abbreviation not defined); type: binding
tubulin [4] = test: MA IC50 (Tables 12-26, abbreviation not defined); type: biochemical
K562 = K562 cell cycle analysis; type: cell-based, human; conditions: K562; for % of cells in G0–G1 / % of cells in G2-M / % of cells in S phase: of cells with DNA content = 2 n or >2 n

Row | Compound | IC50 ([1]; Homo sapiens, K562) [µM] | IC50 ([2]; Mus musculus, P388, MTT) [µM] | IC50 (A2780) [µM] | IC50 ([2]; MTT) [µM] | IC50 (tubulin [3]) [µM] | IC50 (tubulin [4]) [µM] | IC50 [1] [µM] | % of cells with DNA content <2 n (K562) [%] | % of cells in G0–G1 (K562) [%] | % of cells in G2-M (K562) [%] | % of cells in S phase (K562) [%]
1 | COc1ccc(/C(C)=C\c2cc(OC)c(OC)c(OC)c2)cc1O [Compound 20, Z-1-(3′,4′,5′-trimethoxyphenyl)-2-(3″-hydroxy-4″-methoxyphenyl)propene] | 1.8 | 7 | – | – | – | – | – | – | – | – | –
2 | COc1cc(C=Cc2ccc(C=O)cc2)cc(OC)c1OC [Compound 96-188] | – | – | 0.081 | 0.32 | – | – | – | – | – | – | –
3 | COc1cc(/C=C\c2cccc(O)c2)cc(OC)c1OC [Compound 101] | 0.14 | 0.3 | – | – | > 25 | > 10 | – | – | – | – | –
4 | COc1cc(/C=C\c2ccc(C)c(C)c2)cc(OC)c1OC [Compound 103] | 0.04 | 0.1 | – | – | > 25 | 2 | – | – | – | – | –
5 | COc1cc(/C=C/c2ccc(C)c(C)c2)cc(OC)c1OC [Compound 104] | – | – | – | 20 | > 25 | > 10 | 35.8 | – | – | – | –
6 | Cc1ccc(C=Cc2ccc(C)c(C)c2)cc1 [Compound 137] | 3.4 | 2 | – | – | > 25 | > 10 | – | – | – | – | –
7 | COc1ccc(C=Cc2ccc(C)c(C)c2)cc1[N+](=O)[O-] [Compound 139] | 1.8 | 20 | – | – | > 25 | > 10 | – | – | – | – | –
8 | COc1ccc(/C=C/c2ccc(C)c(C)c2)cc1[N+](=O)[O-] [Compound 140] | – | – | – | > 50 | > 25 | > 10 | 24 | – | – | – | –
9 | COc1ccc(C=Cc2ccc(C)c(C)c2)cc1 [Compound 141] | 1.6 | 4.9 | – | – | > 25 | > 10 | – | – | – | – | –
10 | COc1ccc(/C=C/c2ccc(C)c(C)c2)cc1 [Compound 142] | – | – | – | 20.5 | > 25 | > 10 | > 50 | – | – | – | –
11 | COc1ccc(C=Cc2ccc(C)c(C)c2)cc1Br [Compound 143] | 1.15 | 2.5 | – | – | > 25 | > 10 | – | – | – | – | –
12 | COc1ccc(/C=C/c2ccc(C)c(C)c2)cc1Br [Compound 144] | – | – | – | > 50 | > 25 | > 10 | > 50 | – | – | – | –
13 | COc1ccc(C=Cc2ccc(C)c(C)c2)cc1O [Compound 146] | 0.07 | 0.4 | – | – | 12.5 | 3.09 | – | 31 | 8 | 65 | 27
14 | COc1ccc(C=Cc2ccc(C)c(C)c2)cc1F [Compound 147] | 0.09 | 1.7 | – | – | > 25 | 6.57 | – | 28 | 10 | 57 | 33
15 | COc1ccc(/C=C/c2ccc(C)c(C)c2)cc1F [Compound 148] | – | – | – | 36 | > 25 | > 10 | 2.5 | – | – | – | –
16 | Cc1ccc(C=Cc2ccc(C)c(F)c2)cc1C [Compound 149] | 0.39 | 7.2 | – | – | > 25 | > 10 | – | – | – | – | –

Row | Compound | IC50 ([1]; Homo sapiens, K562) [µM] | IC50 ([2]; Mus musculus, P388, MTT) [µM] | IC50 (A2780) [µM] | IC50 ([2]; MTT) [µM] | IC50 (tubulin [3]) [µM] | IC50 (tubulin [4]) [µM] | IC50 [1] [µM] | % of cells with DNA content <2 n (K562) [%] | % of cells in G0–G1 (K562) [%] | % of cells in G2-M (K562) [%] | % of cells in S phase (K562) [%]
17 | Cc1ccc(/C=C/c2ccc(C)c(F)c2)cc1C [Compound 150] | – | – | – | 40 | > 25 | > 10 | > 50 | – | – | – | –
18 | Cc1ccc(C=Cc2ccc(C)c([N+](=O)[O-])c2)cc1C [Compound 151] | 1.5 | 9.7 | – | – | > 25 | > 10 | – | – | – | – | –
19 | Cc1ccc(/C=C/c2ccc(C)c([N+](=O)[O-])c2)cc1C [Compound 152] | – | – | – | > 50 | > 25 | > 10 | > 50 | – | – | – | –
20 | COc1ccc(C(C)=Cc2cc(OC)c(OC)c(OC)c2)cc1O [Compound 200] | 2 | 7 | – | – | > 25 | 9 | – | – | – | – | –
21 | COc1ccc(/C=C/c2cc(OC)c(OC)c(O[Si](C)(C)C(C)(C)C)c2)cc1F [Compound 241] | – | – | – | – | > 25 | > 10 | 10 | – | – | – | –
22 | COc1ccc(/C=C\c2cc(O)c(OC)c(OC)c2)cc1F [Compound 242] | 0.02 | – | – | – | 9 | 1.25 | – | 29 | 7 | 71 | 22
23 | COc1ccc(/C=C/c2cc(O)c(OC)c(OC)c2)cc1F [Compound 243] | – | – | – | – | > 25 | > 10 | 5 | – | – | – | –
24 | CCOc1cc(C=Cc2ccc(OC)c(Br)c2)cc(OCC)c1OCC [Compound 247] | 0.6 | – | – | – | > 25 | > 10 | – | – | – | – | –
25 | CCOc1cc(/C=C/c2ccc(OC)c(Br)c2)cc(OCC)c1OCC [Compound 248] | – | – | – | – | > 25 | > 10 | > 50 | – | – | – | –
26 | CCOc1cc(C=Cc2ccc(OC)cc2)cc(OCC)c1OCC [Compound 249] | 0.5 | – | – | – | > 25 | > 10 | – | – | – | – | –
27 | CCOc1cc(/C=C/c2ccc(OC)cc2)cc(OCC)c1OCC [Compound 250] | – | – | – | – | > 25 | > 10 | > 50 | – | – | – | –
28 | CCOc1cc(/C=C/c2ccc(OC)c(F)c2)cc(OCC)c1OCC [Compound 252] | – | – | – | – | > 25 | > 10 | > 50 | – | – | – | –
29 | CCOc1cc(/C=C/c2ccc(OC)c(O)c2)cc(OCC)c1OCC [Compound 254] | – | – | – | – | > 25 | > 10 | 0.2 | – | – | – | –
30 | CCOc1cc(C=Cc2ccc(OC)c(Cl)c2)cc(OCC)c1OCC [Compound 257] | 0.45 | – | – | – | > 25 | > 10 | – | – | – | – | –
31 | CCOc1cc(/C=C/c2ccc(OC)c(Cl)c2)cc(OCC)c1OCC [Compound 258] | – | – | – | – | > 25 | > 10 | 7 | – | – | – | –
